Measured values: US20050282242A1, “Screening assays for antimicrobial agents” (priority 2004, published 2005)
Converted amounts (≈) assume the structure as drawn.

Legend:
[1] = tested on: Wild-type parent strains (S. aureus 29213, Smith, W59536, 8325-4); assay: MIC, wild-type parent S. aureus strains; format: cell-based; conditions: Staphylococcus aureus; Mutation None: wild-type parent strains; read-out: MIC
Excerpt: (§1) S. aureus is one of the most frequently encountered Gram-positive pathogens. Drug resistance-conferring mutations typically occur within the β subunit of RNA polymerase (RpoB mutations), in the rifampin-binding site. Mutants of S. aureus were isolated by inoculating a culture of S. aureus ATCC strain 29213 (standard susceptibility testing strain) into medium containing rifampin or rifalazil; by inoculating S. aureus ATCC strain 29213 into medium containing chemical derivatives of rifamycin (NCEs); by inoculating S. aureus Smith, a variant optimally adapted to colonizing and causing disease in the mouse septicemia model, into medium containing rifampin; and by using the Ian Chopra collection, the parent strain of which is S. aureus 8325-4 and described previously by Oliva et al. (Antimicrob. Agents Chemother. 45:532-9, 2001). Mutants resistant to rifampin, rifalazil, or NCEs were selected either on drug-containing plates or in liquid culture.
Having identified these mutants, the minimum inhibitory concentrations (MIC) of a number of rifamycin derivatives were determined in microtiter trays by inoculating 1-8×10^4 microorganisms in 100 μl of Mueller-Hinton Broth (cation adjusted) containing the indicated compound (Table 3) (National Committee for Clinical Laboratory Standards, Methods for Dilution Antimicrobial Susceptibility Tests for Bacteria That Grow Aerobically-Fourth Edition: Approved Standard M7-A4. NCCLS, Villanova, Pa., 1997). These cultures were incubated for 16-20 hours at 35° C. Based on our results, the most important mutants (conferring the strongest resistance) were identified for more extensive testing of NCEs. These mutants were H481Y, Q468K, S486L, D471Y, S464P, A477D, and H481D. […] An exception to the uniformity of the measure of resistance is provided by the mutants D471Y and S464P, which together have lower MICs for some of the compounds compared to the rest. […]

[2] = tested on: S. aureus RpoB mutant H481Y; assay: MIC, S. aureus RpoB H481Y mutant; format: cell-based; conditions: Staphylococcus aureus; RpoB mutation H481Y; strain backgrounds 1, 2, 3
Excerpt: as §1, with “Mutants resistant to rifampin, rifalazil, or NCEs were selected either on drug-containing plates or in liquid culture.” left out
(§2) Having identified these mutants, the minimum inhibitory concentrations (MIC) of a number of rifamycin derivatives were determined in microtiter trays by inoculating 1-8×10^4 microorganisms in 100 μl of Mueller-Hinton Broth (cation adjusted) containing the indicated compound (Table 3) (National Committee for Clinical Laboratory Standards, Methods for Dilution Antimicrobial Susceptibility Tests for Bacteria That Grow Aerobically-Fourth Edition: Approved Standard M7-A4. NCCLS, Villanova, Pa., 1997). […]

[3] = tested on: S. aureus RpoB mutant R484H; assay: MIC, S. aureus RpoB R484H mutant; format: cell-based; conditions: Staphylococcus aureus; RpoB mutation R484H; strain backgrounds 1, 3
Excerpt: as §1, with “Mutants resistant to rifampin, rifalazil, or NCEs were selected either on drug-containing plates or in liquid culture.” left out
as §2

[4] = tested on: S. aureus RpoB mutant I527M; assay: MIC, S. aureus RpoB I527M mutant; format: cell-based; conditions: Staphylococcus aureus; RpoB mutation I527M; strain background 1
Excerpt: as §1, with “Mutants resistant to rifampin, rifalazil, or NCEs were selected either on drug-containing plates or in liquid culture.” left out
as §2

[5] = tested on: S. aureus RpoB mutant D471E; assay: MIC, S. aureus RpoB D471E mutant; format: cell-based; conditions: Staphylococcus aureus; RpoB mutation D471E; strain background 4
Excerpt: as §1, with “Mutants resistant to rifampin, rifalazil, or NCEs were selected either on drug-containing plates or in liquid culture.” left out
as §2

[6] = tested on: S. aureus RpoB mutant H481D; assay: MIC, S. aureus RpoB H481D mutant; format: cell-based; conditions: Staphylococcus aureus; RpoB mutation H481D; strain backgrounds 1, 4
Excerpt: as §1, with “Mutants resistant to rifampin, rifalazil, or NCEs were selected either on drug-containing plates or in liquid culture.” left out
as §2

[7] = tested on: S. aureus RpoB mutant H481N; assay: MIC, S. aureus RpoB H481N mutant; format: cell-based; conditions: Staphylococcus aureus; RpoB mutation H481N; strain backgrounds 1, 4
Excerpt: as §1, with “Mutants resistant to rifampin, rifalazil, or NCEs were selected either on drug-containing plates or in liquid culture.” left out
as §2

[8] = tested on: S. aureus RpoB mutant R484S; assay: MIC, S. aureus RpoB R484S mutant; format: cell-based; conditions: Staphylococcus aureus; RpoB mutation R484S; strain background 1
Excerpt: as §1, with “Mutants resistant to rifampin, rifalazil, or NCEs were selected either on drug-containing plates or in liquid culture.” left out
as §2

[9] = tested on: S. aureus RpoB mutant Q468R; assay: MIC, S. aureus RpoB Q468R mutant; format: cell-based; conditions: Staphylococcus aureus; RpoB mutation Q468R; strain background 1
Excerpt: as §1, with “Mutants resistant to rifampin, rifalazil, or NCEs were selected either on drug-containing plates or in liquid culture.” left out
as §2

[10] = tested on: S. aureus RpoB mutant Q468K; assay: MIC, S. aureus RpoB Q468K mutant; format: cell-based; conditions: Staphylococcus aureus; RpoB mutation Q468K; strain background 1
Excerpt: as §1, with “Mutants resistant to rifampin, rifalazil, or NCEs were selected either on drug-containing plates or in liquid culture.” left out
as §2

[11] = tested on: S. aureus RpoB mutant R484C; assay: MIC, S. aureus RpoB R484C mutant; format: cell-based; conditions: Staphylococcus aureus; RpoB mutation R484C; strain background 3
Excerpt: as §1, with “Mutants resistant to rifampin, rifalazil, or NCEs were selected either on drug-containing plates or in liquid culture.” left out
as §2

[12] = tested on: S. aureus Smith mutant containing the L466S mutation in RpoB; assay: Mouse septicemia model, S. aureus Smith RpoB L466S; format: in vivo; conditions: 1.1 × 10^7 CFU/mouse, three days
Experimental: (§3) Antimicrobial compounds may also be screened in vivo using a mouse septicemia model. In one particular example, mice were inoculated with an S. aureus Smith strain (Weiss) encoding a mutated microbial polypeptide (e.g., a mutated RpoB). Compounds were administered either IV or orally 30 minutes following inoculation, and observations was continued for three days. Compounds that promoted the survival of inoculated mice were identified as being compounds that are effective against antibiotic-resistant forms of S. aureus.
(§4) This was accounted for by the increased MIC against these mutant strains compared with the wild-type strain (MICs of 2 μg/ml and 0.004-0.008 μg/ml, respectively).

[13] = tested on: S. aureus RpoB mutant I527P; assay: MIC, S. aureus RpoB I527P mutant; format: cell-based; conditions: Staphylococcus aureus; RpoB mutation I527P; strain background 1
Excerpt: as §1, with “Mutants resistant to rifampin, rifalazil, or NCEs were selected either on drug-containing plates or in liquid culture.” left out
as §2

[14] = tested on: S. aureus RpoB mutant H481R; assay: MIC, S. aureus RpoB H481R mutant; format: cell-based; conditions: Staphylococcus aureus; RpoB mutation H481R; strain background 3
Excerpt: as §1, with “Mutants resistant to rifampin, rifalazil, or NCEs were selected either on drug-containing plates or in liquid culture.” left out
as §2

[15] = tested on: S. aureus RpoB mutant S464P; assay: MIC, S. aureus RpoB S464P mutant; format: cell-based; conditions: Staphylococcus aureus; RpoB mutation S464P; strain backgrounds 1, 2, 4
Excerpt: as §1, with “Mutants resistant to rifampin, rifalazil, or NCEs were selected either on drug-containing plates or in liquid culture.” left out
as §2

[16] = tested on: S. aureus RpoB mutant L466S; assay: MIC, S. aureus RpoB L466S mutant; format: cell-based; conditions: Staphylococcus aureus; RpoB mutation L466S; strain backgrounds 1, 2, 4
Excerpt: as §1, with “Mutants resistant to rifampin, rifalazil, or NCEs were selected either on drug-containing plates or in liquid culture.” left out
as §2

[17] = tested on: S. aureus RpoB mutant D471V; assay: MIC, S. aureus RpoB D471V mutant; format: cell-based; conditions: Staphylococcus aureus; RpoB mutation D471V; strain background 3
Excerpt: as §1, with “Mutants resistant to rifampin, rifalazil, or NCEs were selected either on drug-containing plates or in liquid culture.” left out
as §2

[18] = tested on: S. aureus 29213; assay: Mutant score test (resistance development on agar); format: cell-based; conditions: 10^9 cells of S. aureus 29213 on agar plate with 1 μg/ml compound
Experimental: A further confirmation of the validity of MIC testing of the mutant panel was provided by our mutant score test. Using this strategy, compounds were individually tested for resistance development by inoculating 10^9 cells of S. aureus 29213, a standard susceptibility strain, onto a large agar plate (150 mm) containing Mueller Hinton Agar as well as 1 μg/ml of the test compound. The presence of rifalazil or rifampin in these plates generally allowed for the growth of ˜50 colonies, all colonies representing a mutant sub-population or populations in the culture. […] The MICs of NCEs on agar plates were lower than MICs determined by growth in liquid broth. […] This correlation provided additional confidence in the value and ranking of compounds by MIC testing of the mutant panel, as compounds having a score of 2 have tracked with strong activity in MIC testing against resistant strains, as indicated in Table 3.

[19] = tested on: S. aureus RpoB mutant D471G; assay: MIC, S. aureus RpoB D471G mutant; format: cell-based; conditions: Staphylococcus aureus; RpoB mutation D471G; strain backgrounds 1, 2
Excerpt: as §1, with “Mutants resistant to rifampin, rifalazil, or NCEs were selected either on drug-containing plates or in liquid culture.” left out
as §2

[20] = tested on: S. aureus RpoB mutant S486L; assay: MIC, S. aureus RpoB S486L mutant; format: cell-based; conditions: Staphylococcus aureus; RpoB mutation S486L; strain backgrounds 1, 2, 4
Excerpt: as §1, with “Mutants resistant to rifampin, rifalazil, or NCEs were selected either on drug-containing plates or in liquid culture.” left out
as §2

[21] = tested on: S. aureus RpoB mutant A477V; assay: MIC, S. aureus RpoB A477V mutant; format: cell-based; conditions: Staphylococcus aureus; RpoB mutation A477V; strain backgrounds 1, 2
Excerpt: as §1, with “Mutants resistant to rifampin, rifalazil, or NCEs were selected either on drug-containing plates or in liquid culture.” left out
as §2

[22] = tested on: S. aureus RpoB mutant D471Y; assay: MIC, S. aureus RpoB D471Y mutant; format: cell-based; conditions: Staphylococcus aureus; RpoB mutation D471Y; strain backgrounds 1, 2, 4
Excerpt: as §1, with “Mutants resistant to rifampin, rifalazil, or NCEs were selected either on drug-containing plates or in liquid culture.” left out
as §2

[23] = tested on: S. aureus RpoB mutant A477D; assay: MIC, S. aureus RpoB A477D mutant; format: cell-based; conditions: Staphylococcus aureus; RpoB mutation A477D; strain backgrounds 1, 4
Excerpt: as §1, with “Mutants resistant to rifampin, rifalazil, or NCEs were selected either on drug-containing plates or in liquid culture.” left out
as §2

[24] = tested on: S. aureus RpoB mutant Q137L; assay: MIC, S. aureus RpoB Q137L mutant; format: cell-based; conditions: Staphylococcus aureus; RpoB mutation Q137L; strain backgrounds 1, 4
Excerpt: as §1, with “Mutants resistant to rifampin, rifalazil, or NCEs were selected either on drug-containing plates or in liquid culture.” left out
as §2

[25] = tested on: S. aureus Smith mutant containing the S486L mutation in RpoB; assay: Mouse septicemia model, S. aureus Smith RpoB S486L; format: in vivo; conditions: 1.4 × 10^7 CFU/mouse, three days
Experimental: as §3, §4

[26] = tested on: S. aureus Smith containing the RpoB H481Y alteration; assay: Mouse septicemia model, S. aureus Smith RpoB H481Y; format: in vivo; conditions: for Survival (n = 5): mouse, 1.1 × 10^7 CFU/mouse, three days
Experimental: as §3, §4

Compound: CO[C@H]1/C=C/O[C@@]2(C)Oc3c(C)c(O)c4c(O)c(c(/C=N/N5CCN(C)CC5)c(O)c4c3C2=O)NC(=O)/C(C)=C\C=C\[C@H](C)[C@H](O)[C@@H](C)[C@@H](O)[C@@H](C)[C@H](OC(C)=O)[C@@H]1C [Rifampicin, rifampin]
- MIC [1]: 0.015 µg/mL (≈ 0.0182 µM)
- MIC [2]: > 8 µg/mL
- MIC [3]: > 8 µg/mL
- MIC [4]: 0.25 µg/mL (≈ 0.304 µM)
- MIC [5]: 0.25 µg/mL (≈ 0.304 µM)
- MIC [6]: > 8 µg/mL
- MIC [7]: 2 µg/mL (≈ 2.43 µM)
- MIC [8]: 8 µg/mL (≈ 9.72 µM)
- MIC [9]: > 8 µg/mL
- MIC [10]: > 8 µg/mL
- MIC [11]: 2 µg/mL (≈ 2.43 µM)
- Survival (n = 5) ([12]; IV 6.0 mg/kg): 0
- Survival (n = 5) ([12]; IV 20.0 mg/kg): 0
- MIC [13]: 4 µg/mL (≈ 4.86 µM)
- MIC [14]: > 8 µg/mL
- MIC [15]: > 8 µg/mL
- MIC [16]: 0.25 µg/mL (≈ 0.304 µM)
- MIC [17]: > 8 µg/mL
- growth of mutant colonies on plate [18]: ~50 colonies
- MIC [19]: > 8 µg/mL
- MIC [20]: > 8 µg/mL
- MIC [21]: 1 µg/mL (≈ 1.22 µM)
- MIC [22]: 1 µg/mL (≈ 1.22 µM)
- MIC [23]: > 8 µg/mL
- MIC [24]: 0.25 µg/mL (≈ 0.304 µM)
- Survival (n = 5) ([25]; IV 6.0 mg/kg): 0
- Survival (n = 5) ([25]; IV 20.0 mg/kg): 1
- efficacy against mutant strains in vivo ([26]; mouse septicemia model, mutant strains in general): failed to be effective
- Survival (n = 5) ([26]; IV 6.0 mg/kg): 0
- Survival (n = 5) ([26]; IV 20.0 mg/kg): 0
- Survival (n = 5) ([26]; oral 200.0 mg/kg): 0
